How the values were obtained:
[1] = as series B (acyl azide from hydrazide, MeCN cosolvent), isolated after prep HPLC; details: the molecule shown is the open-chain precursor, aq phosphate buffer (6 M GdmCl) diluted with 2 vol 50% MeCN/water, 4.0 mM, 2 steps
[2] = as series A (acyl azide from hydrazide, biphasic EtOAc/buffer), isolated after prep HPLC; details: 21-membered ring, aq phosphate buffer (6 M GdmCl) / EtOAc biphasic, 3.0 mM, 0.25 h, 2 steps
[3] = head-to-tail lactamisation of unprotected peptide acyl azide (from C-terminal hydrazide, 20 equiv NaNO2, pH 3, -15 C, then NaHCO3 to pH ~7), biphasic EtOAc/buffer; details: 21-membered ring, aq phosphate buffer (6 M GdmCl, 50 mM NaH2PO4, 1.5 mM EDTA) / EtOAc biphasic, 3.0 mM, 0.25 h, 2 steps
[4] = from C=CC[C@H](NC(=O)[C@H](CC(C)C)NC(=O)[C@H](CC(C)C)N(C)C(=O)[C@@H](NC(=O)[C@H](Cc1ccc(O)c([N+](=O)[O-])c1)NC(=O)[C@H](CC(C)C)N(C)C(=O)[C@@H](N)Cc1c[nH]c2ccccc12)[C@@H](C)O)C(=O)N=[N+]=[N-]
[5] = from C=CC(C)(C)n1cc(C[C@H](N)C(=O)N(C)[C@@H](CC(C)C)C(=O)N[C@@H](Cc2ccc(O)c([N+](=O)[O-])c2)C(=O)N[C@@H](C)C(=O)N(C)[C@@H](CC(C)C)C(=O)N[C@@H](CC(C)C)C(=O)N[C@@H](C/C=C/C)C(=O)N=[N+]=[N-])c2ccccc21

With `CC(C)C[C@H](NC(=O)[C@H](Cc1ccc(O)cc1)NC(=O)[C@@H]1CCCN1C(=O)CN)C(=O)N[C@@H](C)C(=O)N=[N+]=[N-]` [H-Gly-Pro-Tyr-Leu-Ala-N3] as the molecule, how does the ring closure, yield over several steps ([1]; 15-membered ring) read?
The ring closure, yield over several steps was 51%.

With `CC[C@H](C)[C@H](NC(=O)CNC(=O)[C@H](CO)NC(=O)[C@@H]1CCCN1C(=O)[C@@H](NC(=O)[C@@H]1CCCN1)C(C)C)C(=O)N[C@@H](Cc1ccccc1)C(=O)NCC(=O)N=[N+]=[N-]` [H-Pro-Val-Pro-Ser-Gly-Ile-Phe-Gly-N3] as the molecule, how does the ring closure, yield over several steps ([1]; 24-membered ring) read?
The ring closure, yield over several steps was 42%.

With `CC(=O)N[C@@H](Cc1ccccc1)C(=O)N[C@@H](CCCN)C(=O)N1CCC[C@H]1C(=O)N[C@H](Cc1ccc(O)cc1)C(=O)N[C@@H](Cc1c[nH]c2ccccc12)C(=O)N[C@@H](CCCNC(=N)N)C(=O)N=[N+]=[N-]` [Ac-Phe-Orn(cyclises via side chain)-Pro-D-Tyr-Trp-Arg-N3] as the molecule, how does the ring closure, yield over several steps ([1]; 18-membered ring) read?
The ring closure, yield over several steps was 62%.

With `CSCC[C@H](NC(=O)[C@@H](NC(=O)[C@H](CC(C)C)NC(=O)CNC(=O)[C@@H]1CCCN1C(=O)[C@@H](NC(=O)CNC(=O)[C@@H](N)Cc1ccccc1)C(C)C)C(C)C)C(=O)N=[N+]=[N-]` [H-Phe-Gly-Val-Pro-Gly-Leu-Val-Met-N3] as the molecule, how does the ring closure, yield over several steps ([1]; 24-membered ring) read?
Its ring closure, yield over several steps is 12%.

For `CC(C)C[C@H](NC(=O)[C@H](CCCN)NC(=O)[C@@H](NC(=O)[C@@H]1CCCN1C(=O)[C@@H](Cc1ccccc1)NC(=O)[C@H](CC(C)C)NC(=O)[C@H](CCCN)NC(=O)[C@@H](NC(=O)[C@@H]1CCCN1C(=O)[C@H](N)Cc1ccccc1)C(C)C)C(C)C)C(=O)N=[N+]=[N-]` [H-D-Phe-Pro-Val-Orn-Leu-D-Phe-Pro-Val-Orn-Leu-N3], which ring closure, yield over several steps ([1]; 30-membered ring) is on record?
Its ring closure, yield over several steps is 63%.

With `C=CC[C@@H]1NC(=O)[C@H](CC(C)C)NC(=O)[C@H](CC(C)C)N(C)C(=O)[C@H]([C@@H](C)O)NC(=O)[C@H](Cc2ccc(O)c([N+](=O)[O-])c2)NC(=O)[C@H](CC(C)C)N(C)C(=O)[C@H](Cc2c[nH]c3ccccc23)NC1=O` [H-Trp-N-Me-Leu-Tyr(3-NO2)-Thr-N-Me-Leu-Leu-allylGly-N3] as the molecule, how does the ring closure, yield over several steps [2, 4] read?
The ring closure, yield over several steps was 35%.

What about the ring closure, conversion by HPLC [3, 4] of the same molecule?
The ring closure, conversion by HPLC was 78%.

For `CC(C)C[C@H](NC(=O)[C@H](CCCN)NC(=O)[C@@H](NC(=O)[C@H](Cc1ccc(O)cc1)NC(=O)[C@H](CCC(N)=O)NC(=O)[C@H](CC(N)=O)NC(=O)[C@@H](Cc1ccccc1)NC(=O)[C@H](Cc1ccccc1)NC(=O)[C@@H]1CCCN1C(=O)[C@H](N)Cc1ccccc1)C(C)C)C(=O)N=[N+]=[N-]` [H-D-Phe-Pro-Phe-D-Phe-Asn-Gln-Tyr-Val-Orn-Leu-N3], which ring closure, yield over several steps ([1]; 30-membered ring, 0.25 h) is on record?
The ring closure, yield over several steps was 68%.

With `CCCCC(C)CCC(=O)N[C@@H](CCN)C(=O)N[C@H](C(=O)N[C@@H](CCN)C(=O)N[C@@H](CCN)C(=O)N[C@@H](CCN)C(=O)N[C@H](CC(C)C)C(=O)N[C@@H](CC(C)C)C(=O)N[C@@H](CCN)C(=O)N[C@@H](CCN)C(=O)N[C@H](C(=O)N=[N+]=[N-])[C@@H](C)O)[C@@H](C)O` (some centres unmarked) as the molecule, how does the ring closure, yield over several steps ([1]; 23-membered ring) read?
Its ring closure, yield over several steps is 3%.

With `C=CC(C)(C)n1cc(C[C@@H]2NC(=O)[C@H](C/C=C/C)NC(=O)[C@H](CC(C)C)NC(=O)[C@H](CC(C)C)N(C)C(=O)[C@H](C)NC(=O)[C@H](Cc3ccc(O)c([N+](=O)[O-])c3)NC(=O)[C@H](CC(C)C)N(C)C2=O)c2ccccc21` as the molecule, how does the ring closure, yield over several steps [2, 5] read?
Its ring closure, yield over several steps is 39%.

And the ring closure, conversion by HPLC [3, 5]?
The ring closure, conversion by HPLC was 84%.
